Patent US20230080670A1, “METHODS AND COMPOSITIONS FOR TREATING TUMORS USING TRANSCRIPTION INHIBITION AND DNA DAMAGE” (ARIZONA BOARD OF REGENTS ON BEHALF OF THE UNIVERSITY OF …, priority 2019, published 2023)
Entries after “also recorded” stand apart in the source; their conditions may differ.

Experiments:
[1] = test system: A673 cells; assay: MTT cell survival assay, A673 Ewing's sarcoma cell line; type: cell-based; settings: 96 hours
Protocol: It was tested whether the functional interaction of EWS or FUS with the fusion protein driving Ewing's sarcoma would make these cells exceptionally sensitive to transcription inhibitors.
The DNA damage agent SN38 and the transcription inhibitor flavopiridol were titrated, and cell survival was measured after 96 hours using an MTT assay (see FIG. 3A).

[2] = test system: gammaH2Ax; assay: Western blot of gammaH2Ax DNA damage response, A673 cells; type: cell-based
[3] = test system: gammaH2Ax; assay: Western blot of gammaH2Ax DNA damage response, HEK293 cells; type: cell-based; settings: flavopiridol added to SN38, 24 hours
Protocol: All doses shown are in nanomolar, nM.
Western blot analysis: Protein lysates concentrations were quantified using BCA Protein Assay (Pierce). 5-10 ug of protein sample was loaded onto 7.5% SDS-PAGE gels. Standard western blot protocols were followed. Blots were transferred at 500 mA, blocked in 5% nonfat dried milk in TBS-T, and incubated overnight with primary antibody at 4° C. Blots were washed in TBS-T, incubated in secondary antibody for 1 hour at room temperature, washed again in TBS-T, and imaged after the addition of SuperSignal™ West Pico PLUS Chemiluminescent substrate (Thermo Scientific). Western blots were imaged on the ChemiDoc.

[4] = test system: patients; settings: therapeutic doses; cited from earlier work

SMILES: CCc1c2c(nc3ccc(O)cc13)-c1cc3c(c(=O)n1C2)COC(=O)[C@]3(O)CC [SN38]
- toxicity (cell survival, MTT assay) ([1]; 1.3 nM SN38 alone): No toxicity
- gammaH2Ax DNA damage response ([2]; SN38 for 24 hours without transcription inhibitor, Ewing's sarcoma cell line): standard DNA damage response

SMILES: CN1CC[C@H](c2c(O)cc(O)c3c(=O)cc(-c4ccccc4Cl)oc23)[C@H](O)C1 [flavopiridol]
- toxicity (cell survival, MTT assay) ([1]; 100 nM flavopiridol alone): No toxicity
- inhibition of the gamma H2Ax response to DNA damage (quantification of western blots) ([2]; A673 cells, 10 nM, 50 nM and 100 nM flavopiridol): dose-dependent inhibition
- effect on phosphorylation of histone to gammaH2Ax (DNA damage response) ([2]; transcription inhibitor added to SN38, 24 hours, Ewing's sarcoma cell line): prevented this event
- effect on gammaH2Ax response to DNA damage [3]: does not prevent the normal cellular response to DNA damage; also recorded: had no such effect
- toxicity in patients [4]: significant toxicity
